From patent publication US12495798B2, “Nicotinamide compound and herbicidal composition comprising compound” (KOREA RESEARCH INSTITUTE OF CHEMICAL TECHNOLOGY, priority 2019, dated 2025)

Experiments:
Type in all cases: in vivo
indian jointvetch [1] = experiment: Herbicidal activity test against upland field weeds (foliar treatment test); parameters: key to Foliar treatment herbicidal activity, Indian jointvetch: 0 (no control); 100 (complete control); conditions: scale 0-100; for Foliar treatment herbicidal activity, Indian jointvetch: 50 g ai/ha
In short: (§1)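 Greenhouse-grown plants (30±5 °C, 14/10 h light/dark) foliar hand-sprayed with compound in 50% acetone, 0.1% Tween-20 at 50 or 75 g a.i./ha. Control visually scored 0 (none) to 100 (complete) versus untreated after 14 days, or 21 days if needed.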

crabgrass [2] = experiment: Herbicidal activity test against upland field weeds (soil treatment test); parameters: key to Soil treatment herbicidal activity, Crabgrass: 0 (no control); 100 (complete control); conditions: scale 0 (no control) to 100 (complete control)
In short: (§2)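 Pre-emergence soil surface spray, day after sowing, into sandy loam pots with fertilizer; compounds at 50 or 75 g a.i./ha in 50% acetone, 0.1% Tween-20. Greenhouse at 30±5 °C, 14/10 h light/dark; visual control rated 0–100 against untreated after 14 days (21 if needed).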

barnyard grass [3] = experiment: Herbicidal activity test against upland field weeds (foliar treatment test); parameters: key to Foliar treatment herbicidal activity, barnyard grass: 0 (no control); 100 (complete control); conditions: scale 0-100
In short: as §1

quack grass [4] = experiment: Herbicidal activity test against upland field weeds (soil treatment test); parameters: key to Soil treatment herbicidal activity, quack grass: 0 (no control); 100 (complete control); conditions: scale 0 (no control) to 100 (complete control)
In short: as §2

quack grass [5] = experiment: Herbicidal activity test against upland field weeds (foliar treatment test); parameters: key to Foliar treatment herbicidal activity, quack grass: 0 (no control); 100 (complete control); conditions: scale 0-100
In short: as §1

cocklebur [6] = experiment: Herbicidal activity test against upland field weeds (soil treatment test); parameters: key to Soil treatment herbicidal activity, Cocklebur: 0 (no control); 100 (complete control); conditions: scale 0 (no control) to 100 (complete control)
In short: as §2

bindweed [7] = experiment: Herbicidal activity test against upland field weeds (foliar treatment test); parameters: key to Foliar treatment herbicidal activity, Bindweed: 0 (no control); 100 (complete control); conditions: scale 0-100
In short: as §1

cocklebur [8] = experiment: as above; parameters: key to Foliar treatment herbicidal activity, Cocklebur: 0 (no control); 100 (complete control); conditions: scale 0-100
In short: as §1

black nightshade [9] = experiment: Herbicidal activity test against upland field weeds (soil treatment test); parameters: key to Soil treatment herbicidal activity, black nightshade: 0 (no control); 100 (complete control); conditions: scale 0 (no control) to 100 (complete control)
In short: as §2

velvetleaf [10] = experiment: as above; parameters: key to Soil treatment herbicidal activity, velvet leaf: 0 (no control); 100 (complete control); conditions: scale 0 (no control) to 100 (complete control)
In short: as §2

barnyard grass [11] = experiment: as above; parameters: key to Soil treatment herbicidal activity, barnyard grass: 0 (no control); 100 (complete control); conditions: scale 0 (no control) to 100 (complete control); for Soil treatment herbicidal activity, barnyard grass: 50 g ai/ha
In short: as §2

fall panicum [12] = experiment: Herbicidal activity test against upland field weeds (foliar treatment test); conditions: Panicum dichotomiflorum, scale 0-100; for pest or weed control at 50 g/ha: 50 g ai/ha
In short: as §1

sorghum [13] = experiment: Herbicidal activity test against upland field weeds (soil treatment test); parameters: key to Soil treatment herbicidal activity, Sorghum: 0 (no control); 100 (complete control); conditions: scale 0 (no control) to 100 (complete control)
In short: as §2

velvetleaf [14] = experiment: Herbicidal activity test against upland field weeds (foliar treatment test); parameters: key to Foliar treatment herbicidal activity, velvet leaf: 0 (no control); 100 (complete control)
In short: as §1

sorghum [15] = experiment: as above; parameters: key to Foliar treatment herbicidal activity, Sorghum: 0 (no control); 100 (complete control); conditions: scale 0-100
In short: as §1

black nightshade [16] = experiment: as above; parameters: key to Foliar treatment herbicidal activity, black nightshade: 0 (no control); 100 (complete control); conditions: scale 0-100; for Foliar treatment herbicidal activity, black nightshade: 50 g ai/ha
In short: as §1

indian jointvetch [17] = experiment: Herbicidal activity test against upland field weeds (soil treatment test); parameters: key to Soil treatment herbicidal activity, Indian jointvetch: 0 (no control); 100 (complete control); conditions: scale 0 (no control) to 100 (complete control); for Soil treatment herbicidal activity, Indian jointvetch: 50 g ai/ha
In short: as §2

fall panicum [18] = experiment: as above; parameters: key to Soil treatment herbicidal activity, Fall panicum: 0 (no control); 100 (complete control); conditions: scale 0 (no control) to 100 (complete control)
In short: as §2

crabgrass [19] = experiment: Herbicidal activity test against upland field weeds (foliar treatment test); parameters: key to Foliar treatment herbicidal activity, Crabgrass: 0 (no control); 100 (complete control); conditions: scale 0-100
In short: as §1

bindweed [20] = experiment: Herbicidal activity test against upland field weeds (soil treatment test); parameters: key to Soil treatment herbicidal activity, Bindweed: 0 (no control); 100 (complete control); conditions: scale 0 (no control) to 100 (complete control)
In short: as §2

[21] = Digitaria sanguinalis, 50 g ai/ha
[22] = Xanthium strumarium, 50 g ai/ha
[23] = Digitaria sanguinalis, 75 g ai/ha
[24] = Echinochloa crus-galli, 75 g ai/ha

With `Cn1nnc(C[S+]([O-])Cc2nc(C(F)(F)F)ccc2C(=O)Nc2nnnn2C)n1` (stereo not drawn) [Compound No. 2-104, N-(1-methyl-1H-tetrazol-5-yl)-2-((((2-methyl-2H-tetrazol-5-yl)methyl)sulfinyl)methyl)-6-(trifluoromethyl)nicotinamide] the “Foliar treatment herbicidal activity, Indian jointvetch” value (indian jointvetch [1]) was 100, the “Soil treatment herbicidal activity, Crabgrass” value (crabgrass [2]; 50 g ai/ha) was 0 and the pest or weed control at 50 g/ha (barnyard grass [3]; Echinochloa crus-galli, 50 g ai/ha) was 98%. The “Soil treatment herbicidal activity, quack grass” value (quack grass [4]; 50 g ai/ha) was 0, the pest or weed control at 50 g/ha (quack grass [5]; 50 g ai/ha) was 30% and the “Soil treatment herbicidal activity, Cocklebur” value (cocklebur [6]; 50 g ai/ha) was 0. For the same compound, the “Foliar treatment herbicidal activity, Bindweed” value (bindweed [7]; 50 g ai/ha) was 100, the “Foliar treatment herbicidal activity, Cocklebur” value (cocklebur [8]; 50 g ai/ha) was 100 and the pest or weed control at 50 g/ha (black nightshade [9]; Solanum nigrum, 50 g ai/ha) was 98%. For the same compound, the “Soil treatment herbicidal activity, velvet leaf” value (velvetleaf [10]; 50 g ai/ha) was 100, the “Soil treatment herbicidal activity, barnyard grass” value (barnyard grass [11]) was 0 and the pest or weed control at 50 g/ha (fall panicum [12]) was 98%. For the same compound, the “Soil treatment herbicidal activity, Sorghum” value (sorghum [13]; 50 g ai/ha) was 0, the “Foliar treatment herbicidal activity, velvet leaf” value (velvetleaf [14]; 50 g ai/ha, scale 0-100) was 100 and the plant injury at 50 g/ha (sorghum [15]; Sorghum, 50 g ai/ha) was 80%. For the same compound, the “Foliar treatment herbicidal activity, black nightshade” value (black nightshade [16]) was 100, the “Soil treatment herbicidal activity, Indian jointvetch” value (indian jointvetch [17]) was 0 and the “Soil treatment herbicidal activity, Fall panicum” value (fall panicum [18]; 50 g ai/ha) was 0. For the same compound, the “Foliar treatment herbicidal activity, Crabgrass” value (crabgrass [19]; 50 g ai/ha) was 100 and the “Soil treatment herbicidal activity, Bindweed” value (bindweed [20]; 50 g ai/ha) was 0.

`Cc1cc(C(=O)Nc2nnnn2C)c(OCc2nnnn2C)nc1C(F)(F)F` [Compound No. 1-17, 5-methyl-N-(1-methyl-1H-tetrazol-5-yl)-2-((1-methyl-1H-tetrazol-5-yl)methoxy)-6-(trifluoromethyl)nicotinamide] was tested, and the “Foliar treatment herbicidal activity, Indian jointvetch” value (indian jointvetch [1]) was 0, the pest or weed control at 50 g/ha (crabgrass [2]; [21]) was 20% and the “Foliar treatment herbicidal activity, barnyard grass” value (barnyard grass [3]; 50 g ai/ha) was 0. The “Soil treatment herbicidal activity, quack grass” value (quack grass [4]; 50 g ai/ha) was 0, the “Foliar treatment herbicidal activity, quack grass” value (quack grass [5]; 50 g ai/ha) was 0 and the pest or weed control at 50 g/ha (cocklebur [6]; [22]) was 40%. The pest or weed control at 50 g/ha (bindweed [7]; 50 g ai/ha) was 20%, the pest or weed control at 50 g/ha (cocklebur [8]; [22]) was 40% and the “Soil treatment herbicidal activity, black nightshade” value (black nightshade [9]; 50 g ai/ha) was 100. For the same compound, the pest or weed control at 50 g/ha (velvetleaf [10]; Abutilon theophrasti, 50 g ai/ha, read-out: Soil treatment herbicidal activity, velvet leaf) was 30%, the “Soil treatment herbicidal activity, barnyard grass” value (barnyard grass [11]) was 0 and the pest or weed control at 50 g/ha (fall panicum [12]) was 20%. The “Soil treatment herbicidal activity, Sorghum” value (sorghum [13]; 50 g ai/ha) was 0, the pest or weed control at 50 g/ha (velvetleaf [14]; Abutilon theophrasti, 50 g ai/ha, scale 0-100, read-out: Foliar treatment herbicidal activity, velvet leaf) was 30% and the “Foliar treatment herbicidal activity, Sorghum” value (sorghum [15]; 50 g ai/ha) was 0. The “Foliar treatment herbicidal activity, black nightshade” value (black nightshade [16]) was 100, the “Soil treatment herbicidal activity, Indian jointvetch” value (indian jointvetch [17]) was 0 and the pest or weed control at 50 g/ha (fall panicum [18]; Panicum dichotomiflorum, 50 g ai/ha) was 20%. For the same compound, the pest or weed control at 50 g/ha (crabgrass [19]; [21]) was 20% and the pest or weed control at 50 g/ha (bindweed [20]; 50 g ai/ha) was 20%.

`CN(CCOCc1nnn(C)n1)c1nc(C(F)(F)F)ccc1C(=O)Nc1nnnn1C` [Compound No. 2-34, 2-(methyl(2-((2-methyl-2H-tetrazol-5-yl)methoxy)ethyl)amino)-N-(1-methyl-1H-tetrazol-5-yl)-6-(trifluoromethyl)nicotinamide] gave a pest or weed control at 75 g/ha (indian jointvetch [1]; 75 g ai/ha) of 60%, a pest or weed control at 75 g/ha (crabgrass [2]; [23]) of 70% and a pest or weed control at 75 g/ha (barnyard grass [3]; [24]) of 70%. The “Soil treatment herbicidal activity, quack grass” value (quack grass [4]; 75 g ai/ha) was 0, the “Foliar treatment herbicidal activity, quack grass” value (quack grass [5]; 75 g ai/ha) was 0 and the “Soil treatment herbicidal activity, Cocklebur” value (cocklebur [6]; 75 g ai/ha) was 0. The pest or weed control at 75 g/ha (bindweed [7]; 75 g ai/ha) was 50%, the pest or weed control at 75 g/ha (cocklebur [8]; Xanthium strumarium, 75 g ai/ha) was 40% and the pest or weed control at 75 g/ha (black nightshade [9]; Solanum nigrum, 75 g ai/ha) was 95%. For the same compound, the pest or weed control at 75 g/ha (velvetleaf [10]; Abutilon theophrasti, 75 g ai/ha, read-out: Soil treatment herbicidal activity, velvet leaf) was 60%, the pest or weed control at 75 g/ha (barnyard grass [11]; [24]) was 60% and the pest or weed control at 75 g/ha (fall panicum [12]; 75 g ai/ha) was 40%. For the same compound, the “Soil treatment herbicidal activity, Sorghum” value (sorghum [13]; 75 g ai/ha) was 0, the pest or weed control at 75 g/ha (velvetleaf [14]; Abutilon theophrasti, 75 g ai/ha, scale 0-100, read-out: Foliar treatment herbicidal activity, velvet leaf) was 50% and the plant injury at 75 g/ha (sorghum [15]; Sorghum, 75 g ai/ha) was 20%. The pest or weed control at 75 g/ha (black nightshade [16]; Solanum nigrum, 75 g ai/ha) was 95%, the pest or weed control at 75 g/ha (indian jointvetch [17]; 75 g ai/ha) was 70% and the pest or weed control at 75 g/ha (fall panicum [18]; Panicum dichotomiflorum, 75 g ai/ha) was 80%. For the same compound, the pest or weed control at 75 g/ha (crabgrass [19]; [23]) was 60% and the “Soil treatment herbicidal activity, Bindweed” value (bindweed [20]; 75 g ai/ha) was 0.
